Source: the NIST ThermoML archive (doi:10.1021/je049691v)

Experiment: xn = mol fraction of the nth substance listed
Settings: Liquid

CO [methanol] + O
Settings | mass density [kg/m3]
283.15 K, x2 = 0.08 | 813.74
283.15 K, x2 = 0.1581 | 827.14
283.15 K, x2 = 0.2401 | 842.01
283.15 K, x2 = 0.3206 | 857.15
283.15 K, x2 = 0.3987 | 872.39
283.15 K, x2 = 0.4799 | 888.59
283.15 K, x2 = 0.56 | 905.16
283.15 K, x2 = 0.6407 | 922.05
283.15 K, x2 = 0.7201 | 938.63
283.15 K, x2 = 0.8 | 954.82
283.15 K, x2 = 0.8801 | 970.45
283.15 K, x2 = 0.9603 | 988.05
288.15 K, x2 = 0.08 | 809.22
288.15 K, x2 = 0.1581 | 822.75
288.15 K, x2 = 0.2401 | 837.75
288.15 K, x2 = 0.3206 | 853.02
288.15 K, x2 = 0.3987 | 868.39
288.15 K, x2 = 0.4799 | 884.77
288.15 K, x2 = 0.56 | 901.56
288.15 K, x2 = 0.6407 | 918.74
288.15 K, x2 = 0.7201 | 935.71
288.15 K, x2 = 0.8 | 952.47
288.15 K, x2 = 0.8801 | 968.91
288.15 K, x2 = 0.9603 | 987.31
293.15 K, x2 = 0.08 | 804.67
293.15 K, x2 = 0.1581 | 818.33
293.15 K, x2 = 0.2401 | 833.45
293.15 K, x2 = 0.3206 | 848.84
293.15 K, x2 = 0.3987 | 864.35
293.15 K, x2 = 0.4799 | 880.88
293.15 K, x2 = 0.56 | 897.88
293.15 K, x2 = 0.6407 | 915.33
293.15 K, x2 = 0.7201 | 932.67
293.15 K, x2 = 0.8 | 949.98
293.15 K, x2 = 0.8801 | 967.17
293.15 K, x2 = 0.9603 | 986.29
298.15 K, x2 = 0.08 | 800.1
298.15 K, x2 = 0.1581 | 813.88
298.15 K, x2 = 0.2401 | 829.11
298.15 K, x2 = 0.3206 | 844.62
298.15 K, x2 = 0.3987 | 860.25
298.15 K, x2 = 0.4799 | 876.94
298.15 K, x2 = 0.56 | 894.14
298.15 K, x2 = 0.6407 | 911.85
298.15 K, x2 = 0.7201 | 929.54
298.15 K, x2 = 0.8 | 947.37
298.15 K, x2 = 0.8801 | 965.23
298.15 K, x2 = 0.9603 | 985.01
303.15 K, x2 = 0.08 | 795.52
303.15 K, x2 = 0.1581 | 809.4
303.15 K, x2 = 0.2401 | 824.74
303.15 K, x2 = 0.3206 | 840.35
303.15 K, x2 = 0.3987 | 856.1
303.15 K, x2 = 0.4799 | 872.93
303.15 K, x2 = 0.56 | 890.32
303.15 K, x2 = 0.6407 | 908.28
303.15 K, x2 = 0.7201 | 926.31
303.15 K, x2 = 0.8 | 944.61
303.15 K, x2 = 0.8801 | 963.12
303.15 K, x2 = 0.9603 | 983.49
308.15 K, x2 = 0.08 | 790.9
308.15 K, x2 = 0.1581 | 804.88
308.15 K, x2 = 0.2401 | 820.31
308.15 K, x2 = 0.3206 | 836.03
308.15 K, x2 = 0.3987 | 851.89
308.15 K, x2 = 0.4799 | 868.86
308.15 K, x2 = 0.56 | 886.42
308.15 K, x2 = 0.6407 | 904.62
308.15 K, x2 = 0.7201 | 922.97
308.15 K, x2 = 0.8 | 941.73
308.15 K, x2 = 0.8801 | 960.83
308.15 K, x2 = 0.9603 | 981.76
313.15 K, x2 = 0.08 | 786.24
313.15 K, x2 = 0.1581 | 800.3
313.15 K, x2 = 0.2401 | 815.84
313.15 K, x2 = 0.3206 | 831.64
313.15 K, x2 = 0.3987 | 847.61
313.15 K, x2 = 0.4799 | 864.71
313.15 K, x2 = 0.56 | 882.44
313.15 K, x2 = 0.6407 | 900.87
313.15 K, x2 = 0.7201 | 919.53
313.15 K, x2 = 0.8 | 938.72
313.15 K, x2 = 0.8801 | 958.38
313.15 K, x2 = 0.9603 | 979.82
318.15 K, x2 = 0.08 | 781.54
318.15 K, x2 = 0.1581 | 795.69
318.15 K, x2 = 0.2401 | 811.3
318.15 K, x2 = 0.3206 | 827.2
318.15 K, x2 = 0.3987 | 843.26
318.15 K, x2 = 0.4799 | 860.49
318.15 K, x2 = 0.56 | 878.38
318.15 K, x2 = 0.6407 | 897.03
318.15 K, x2 = 0.7201 | 915.98
318.15 K, x2 = 0.8 | 935.58
318.15 K, x2 = 0.8801 | 955.76
318.15 K, x2 = 0.9603 | 977.69
323.15 K, x2 = 0.08 | 776.8
323.15 K, x2 = 0.1581 | 791.04
323.15 K, x2 = 0.2401 | 806.71
323.15 K, x2 = 0.3206 | 822.69
323.15 K, x2 = 0.3987 | 838.85
323.15 K, x2 = 0.4799 | 856.2
323.15 K, x2 = 0.56 | 874.24
323.15 K, x2 = 0.6407 | 893.1
323.15 K, x2 = 0.7201 | 912.32
323.15 K, x2 = 0.8 | 932.31
323.15 K, x2 = 0.8801 | 952.99
323.15 K, x2 = 0.9603 | 975.39
328.15 K, x2 = 0.08 | 772.01
328.15 K, x2 = 0.1581 | 786.32
328.15 K, x2 = 0.2401 | 802.07
328.15 K, x2 = 0.3206 | 818.11
328.15 K, x2 = 0.3987 | 834.36
328.15 K, x2 = 0.4799 | 851.82
328.15 K, x2 = 0.56 | 870.01
328.15 K, x2 = 0.6407 | 889.07
328.15 K, x2 = 0.7201 | 908.56
328.15 K, x2 = 0.8 | 928.92
328.15 K, x2 = 0.8801 | 950.06
328.15 K, x2 = 0.9603 | 972.92
333.15 K, x2 = 0.08 | 767.16
333.15 K, x2 = 0.1581 | 781.54
333.15 K, x2 = 0.2401 | 797.35
333.15 K, x2 = 0.3206 | 813.44
333.15 K, x2 = 0.3987 | 829.79
333.15 K, x2 = 0.4799 | 847.36
333.15 K, x2 = 0.56 | 865.69
333.15 K, x2 = 0.6407 | 884.94
333.15 K, x2 = 0.7201 | 904.69
333.15 K, x2 = 0.8 | 925.41
333.15 K, x2 = 0.8801 | 947
333.15 K, x2 = 0.9603 | 970.28
338.15 K, x2 = 0.08 | 762.24
338.15 K, x2 = 0.1581 | 776.67
338.15 K, x2 = 0.2401 | 792.56
338.15 K, x2 = 0.3206 | 808.71
338.15 K, x2 = 0.3987 | 825.13
338.15 K, x2 = 0.4799 | 842.81
338.15 K, x2 = 0.56 | 861.28
338.15 K, x2 = 0.6407 | 880.72
338.15 K, x2 = 0.7201 | 900.71
338.15 K, x2 = 0.8 | 921.77
338.15 K, x2 = 0.8801 | 943.79
338.15 K, x2 = 0.9603 | 967.5
343.15 K, x2 = 0.08 | 757.24
343.15 K, x2 = 0.1581 | 771.74
343.15 K, x2 = 0.2401 | 787.68
343.15 K, x2 = 0.3206 | 803.91
343.15 K, x2 = 0.3987 | 820.39
343.15 K, x2 = 0.4799 | 838.17
343.15 K, x2 = 0.56 | 856.77
343.15 K, x2 = 0.6407 | 876.4
343.15 K, x2 = 0.7201 | 896.64
343.15 K, x2 = 0.8 | 918.02
343.15 K, x2 = 0.8801 | 940.45
343.15 K, x2 = 0.9603 | 964.57
348.15 K, x2 = 0.08 | 752.17
348.15 K, x2 = 0.1581 | 766.72
348.15 K, x2 = 0.2401 | 782.71
348.15 K, x2 = 0.3206 | 799
348.15 K, x2 = 0.3987 | 815.56
348.15 K, x2 = 0.4799 | 833.44
348.15 K, x2 = 0.56 | 852.18
348.15 K, x2 = 0.6407 | 871.97
348.15 K, x2 = 0.7201 | 892.45
348.15 K, x2 = 0.8 | 914.14
348.15 K, x2 = 0.8801 | 936.97
348.15 K, x2 = 0.9603 | 961.5
353.15 K, x2 = 0.08 | 747.01
353.15 K, x2 = 0.1581 | 761.6
353.15 K, x2 = 0.2401 | 777.65
353.15 K, x2 = 0.3206 | 794
353.15 K, x2 = 0.3987 | 810.62
353.15 K, x2 = 0.4799 | 828.62
353.15 K, x2 = 0.56 | 847.48
353.15 K, x2 = 0.6407 | 867.48
353.15 K, x2 = 0.7201 | 888.15
353.15 K, x2 = 0.8 | 910.15
353.15 K, x2 = 0.8801 | 933.37
353.15 K, x2 = 0.9603 | 958.3
